Reference: the supplement of paper PMC11208160

Assay: recombinant barcode read abundance after kanamycin selection (control-corrected) (log10(CPM+1)); higher = more efficient recombination; sequences stand for … in AGTGCAGAGAAAATCGGCCAGTTTTCTCTGCCTGCAGTCCGCATGCCGT…AGATTTATGCAGCGGACTGCCTTTCTCCCAAAGTGATAAACCGGACAGTATCATGGACCGGTTTTCCCGGTAATCCGTATTTGCAAGGTTGGTTTCACT; site = the 11-nt target
Procedure, shortened: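 A vector carrying a T7-inducible recombinase and the last 73 bp of the bridge RNA received, by Gibson cloning, oligos encoding a promoter, target, barcode and the first 104 bridge RNA bases under J23119. The pooled constructs entered E. coli together with a donor plasmid by electroporation. Selection used chloramphenicol/ampicillin/kanamycin with 0.1 mM IPTG, with chloramphenicol/ampicillin LB agar as the control, each in two replicates. Recombination efficiency is the averaged, control-corrected counts-per-million of barcodes at recombinant junctions, reported as log10(CPM+1).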
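Further: IS621 recombinase and bridge RNA in Escherichia coli cells.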

| Sequence | recombinant barcode read abundance (log10) |
| --- | --- |
| ATAACTACTTGGGTTCTAACCTGTTGCTT (site ATAACTACTAA) | 0.216 |
| ATAACTACTTGGGTTCTAACCTGTTGCTT (site TACCTACCTTC) | 0.0357 |
| ATAAGCCCTTGGGTTCTAACCTGTTGCCT (site AAAAGCCCTAG) | 0.176 |
| ATAAGCCCTTGGGTTCTAACCTGTTGCCT (site ACAAGCCCTAG) | 0.212 |
| ATAAGCCCTTGGGTTCTAACCTGTTGCCT (site AGAAGCCCTAG) | 0.166 |
| ATAAGCCCTTGGGTTCTAACCTGTTGCCT (site ATAAGCCCTAG) | 1.36 |
| ATAAGCTCTTGGGTTCTAACCTGTTGCCT (site ATAAGCTCTAG) | 2.3 |
| ATAAGCTCTTGGGTTCTAACCTGTTGCCT (site CTAAGCTCTAG) | 0.289 |
| ATAAGCTCTTGGGTTCTAACCTGTTGCCT (site GTAAGCTCTAG) | 0.119 |
| ATAAGCTCTTGGGTTCTAACCTGTTGCCT (site TTAAGCTCTAG) | 0.766 |
| ATAAGGACTTGGGTTCTAACCTGTTGCTA (site ATAAGGACTTA) | 2.01 |
| ATAAGGACTTGGGTTCTAACCTGTTGCTA (site ATACGGACTTA) | 0.111 |
| ATAAGGACTTGGGTTCTAACCTGTTGCTA (site ATAGGGACTTA) | 1.26 |
| ATAAGGACTTGGGTTCTAACCTGTTGCTA (site ATATGGACTTA) | 0.52 |
| ATAAGGGCTTGGGTTCTAACCTGTTGCCT (site ATAAATGCTAG) | 0.183 |
| ATAAGGGCTTGGGTTCTAACCTGTTGCCT (site ATAAGGGCTAG) | 0.652 |
| ATAAGTCCTTGGGTTCTAACCTGTTGCCA (site ATAAGTCCTTG) | 0.582 |
| ATAAGTCCTTGGGTTCTAACCTGTTGCCA (site GTAAGTACTTG) | 0.0629 |
| ATACGTACTTGGGTTCTAACCTGTTGCCT (site ATACGTACTAG) | 1.74 |
| ATACGTACTTGGGTTCTAACCTGTTGCCT (site CTACGTACTAG) | 0.0799 |
| ATACGTACTTGGGTTCTAACCTGTTGCCT (site GTACGTACTAG) | 0.067 |
| ATACGTACTTGGGTTCTAACCTGTTGCCT (site TTACGTACTAG) | 0.0363 |

| Sequence | recombinant barcode read abundance (log10) |
| --- | --- |
| ATACTACCTTGGGTTCTAACCTGTTGCGG (site ATACTACCTCC) | 1.4 |
| ATACTACCTTGGGTTCTAACCTGTTGCGG (site ATCCCACCTCC) | 0.119 |
| ATATACTCTTGGGTTCTAACCTGTTGCCG (site ATATACTCTCG) | 2.38 |
| ATATACTCTTGGGTTCTAACCTGTTGCCG (site ATCTACTCTAG) | 0.0335 |
| ATATGAGCTTGGGTTCTAACCTGTTGCCG (site ATATGAGCTCG) | 0.307 |
| ATATGAGCTTGGGTTCTAACCTGTTGCCG (site ATATGCGCTCG) | 0.175 |
| ATATGAGCTTGGGTTCTAACCTGTTGCCG (site ATATGGGCTCG) | 0.0468 |
| ATATGAGCTTGGGTTCTAACCTGTTGCCG (site ATATGTGCTCG) | 0.167 |
| ATATGAGCTTGGGTTCTAACCTGTTGCTT (site ACATGACCTAA) | 0.177 |
| ATATGAGCTTGGGTTCTAACCTGTTGCTT (site ATATGAGCTAA) | 0.283 |
| ATCAACCCTTGGGTTCTAACCTGTTGCCA (site ATCAACCCTTG) | 1.04 |
| ATCAACCCTTGGGTTCTAACCTGTTGCCA (site TCGTCTACTGA) | 0.375 |
| ATCACAGCTTGGGTTCTAACCTGTTGCCT (site ATCAAAGCTAG) | 0.136 |
| ATCACAGCTTGGGTTCTAACCTGTTGCCT (site ATCACAGCTAG) | 0.736 |
| ATCACGCCTTGGGTTCTAACCTGTTGCCT (site ACCACGCCTAG) | 0.128 |
| ATCACGCCTTGGGTTCTAACCTGTTGCCT (site ATCACGCCTAG) | 0.544 |
| ATCAGGTCTTGGGTTCTAACCTGTTGCCT (site AACAGGTCTAG) | 0.299 |
| ATCAGGTCTTGGGTTCTAACCTGTTGCCT (site ACCAGGTCTAG) | 0.18 |
| ATCAGGTCTTGGGTTCTAACCTGTTGCCT (site AGCAGGTCTAG) | 0.107 |
| ATCAGGTCTTGGGTTCTAACCTGTTGCCT (site ATCAGGTCTAG) | 0.431 |
| ATCAGTACTTGGGTTCTAACCTGTTGCCT (site ATCAGTACTAG) | 0.307 |
| ATCAGTACTTGGGTTCTAACCTGTTGCCT (site CTGAGTACTAG) | 0.242 |

| Sequence | recombinant barcode read abundance (log10) |
| --- | --- |
| ATCCAGGCTTGGGTTCTAACCTGTTGCGG (site ATCCAGGCTCC) | 2.07 |
| ATCCAGGCTTGGGTTCTAACCTGTTGCGG (site ATTCAGACTCC) | 0.00907 |
| ATCGGAGCTTGGGTTCTAACCTGTTGCTG (site ATCGGAGCTCA) | 0.991 |
| ATCGGAGCTTGGGTTCTAACCTGTTGCTG (site ATCGGAGCTCC) | 0.67 |
| ATCGGAGCTTGGGTTCTAACCTGTTGCTG (site ATCGGAGCTCG) | 0.455 |
| ATCGGAGCTTGGGTTCTAACCTGTTGCTG (site ATCGGAGCTCT) | 0.627 |
| ATCGGATCTTGGGTTCTAACCTGTTGCCG (site ATCGGATCTCG) | 0.782 |
| ATCGGATCTTGGGTTCTAACCTGTTGCCG (site CATAACCCTAT) | 0.349 |
| ATCGGGCCTTGGGTTCTAACCTGTTGCCT (site ATCGGGCCTAG) | 0.47 |
| ATCGGGCCTTGGGTTCTAACCTGTTGCCT (site CTCGGGCCTAG) | 0.0724 |
| ATCGGGCCTTGGGTTCTAACCTGTTGCCT (site GTCGGGCCTAG) | 0.582 |
| ATCGGGCCTTGGGTTCTAACCTGTTGCCT (site TTCGGGCCTAG) | 0.0744 |
| ATCGTAGCTTGGGTTCTAACCTGTTGCCA (site ACCCTAGCTTG) | 0.497 |
| ATCGTAGCTTGGGTTCTAACCTGTTGCCA (site ATCGTAGCTTG) | 0.228 |
| ATCGTTCCTTGGGTTCTAACCTGTTGCGT (site ACCGGTCCTAC) | 0.0508 |
| ATCGTTCCTTGGGTTCTAACCTGTTGCGT (site ATCGTTCCTAC) | 0.411 |
| ATCTTACCTTGGGTTCTAACCTGTTGCCT (site ATCTTAACTAG) | 0.069 |
| ATCTTACCTTGGGTTCTAACCTGTTGCCT (site ATCTTACCTAG) | 0.681 |
| ATCTTACCTTGGGTTCTAACCTGTTGCCT (site ATCTTAGCTAG) | 0.0332 |
| ATCTTACCTTGGGTTCTAACCTGTTGCCT (site ATCTTATCTAG) | 0.109 |
| ATGAAGCCTTGGGTTCTAACCTGTTGCCT (site ATGAAGCCTAG) | 1.87 |
| ATGAAGCCTTGGGTTCTAACCTGTTGCCT (site CTGAAGCCTAG) | 0.053 |
